Data published in US9980943B2, “Methods of treating muscular dystrophy” (BOARD OF REGENTS OF THE NEVADA SYSTEM OF HIGHER EDUCATION, …, priority 2013, dated 2018).

Legend:
Assay type in all cases: cell-based, mouse
[1] = system: β-galactosidase in CMV-LacZ C2C12 myotubes; assay: CMV-LacZ secondary screen in C2C12 myotubes (β-Gal stabilizing assay); details: C2C12 CMV-LacZ myotubes, fold relative to DMSO
Outline: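 CMV-LacZ C2C12 line (clonal, FDG-screened); myoblasts/myotubes dosed 0.5–40 μM (0.5, 1, 5, 10, 20, 40 μM); n=2 per point; β-gal stabilization read-out.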

[2] = system: α7 integrin (LacZ reporter in α7+/LacZ myotubes); assay: Myotube α7 integrin FDG assay (Burkin assay in myotubes, 96-well); details: myotubes
[3] = system: α7 integrin (LacZ reporter in α7βgal+/− myoblasts); assay: Myoblast α7+/LacZ integrin FDG assay (Burkin assay in myoblasts, 96-well); details: α7+/LacZ myoblasts, 96-well
[4] = system: β-galactosidase in CMV-LacZ C2C12 myoblasts; assay: CMV-LacZ secondary screen in C2C12 myoblasts (β-Gal stabilizing assay); details: CMV-LacZ C2C12 myoblasts
Outline: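 C2C12 myoblasts stably carrying a linearized CMV-driven LacZ construct, clone chosen by β-gal level in the myoblast FDG assay. Compounds tested in 96-well dose-response at 0.5, 1, 5, 10, 20 and 40 μM, N=2 replicates per point, to detect β-gal stabilization.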

CCCn1c(-c2cc(OC)c(OC)c(OC)c2)nc2c1c(=O)[nH]c(=O)n2Cc1ccccc1 [MLS001174740-01]
CMV-LACZ in Myotubes, signal relative to DMSO ([1]; 0.5 uM): 0.8533
CMV-LACZ in Myotubes, signal relative to DMSO ([1]; 1 uM): 0.9267
CMV-LACZ in Myotubes, signal relative to DMSO ([1]; 5 uM): 0.9101
CMV-LACZ in Myotubes, signal relative to DMSO ([1]; 10 uM): 1.0520
CMV-LACZ in Myotubes, signal relative to DMSO ([1]; 20 uM): 1.0568
CMV-LACZ in Myotubes, signal relative to DMSO ([1]; 40 uM): 0.8863
Burkin Assay in Myotubes, α7 integrin LacZ reporter signal relative to DMSO ([2]; 0.5 uM): 0.9078
Burkin Assay in Myotubes, α7 integrin LacZ reporter signal relative to DMSO ([2]; 1 uM): 0.8687
Burkin Assay in Myotubes, α7 integrin LacZ reporter signal relative to DMSO ([2]; 5 uM): 0.8574
Burkin Assay in Myotubes, α7 integrin LacZ reporter signal relative to DMSO ([2]; 10 uM): 0.9017
Burkin Assay in Myotubes, α7 integrin LacZ reporter signal relative to DMSO ([2]; 20 uM): 0.7823
Burkin Assay in Myotubes, α7 integrin LacZ reporter signal relative to DMSO ([2]; 40 uM): 0.7064
Burkin Assay in Myoblasts, signal relative to DMSO ([3]; 0.5 uM): 1.221
Burkin Assay in Myoblasts, signal relative to DMSO ([3]; 1 uM): 1.193
Burkin Assay in Myoblasts, signal relative to DMSO ([3]; 5 uM): 0.8512
Burkin Assay in Myoblasts, signal relative to DMSO ([3]; 10 uM): 1.181
Burkin Assay in Myoblasts, signal relative to DMSO ([3]; 20 uM): 0.9658
Burkin Assay in Myoblasts, signal relative to DMSO ([3]; 40 uM): 0.5414
CMV-LACZ in Myoblasts (β-galactosidase activity relative to DMSO) ([4]; 0.5 uM): 1.2750
CMV-LACZ in Myoblasts (β-galactosidase activity relative to DMSO) ([4]; 1 uM): 0.9721
CMV-LACZ in Myoblasts (β-galactosidase activity relative to DMSO) ([4]; 5 uM): 1.0046
CMV-LACZ in Myoblasts (β-galactosidase activity relative to DMSO) ([4]; 10 uM): 0.9490
CMV-LACZ in Myoblasts (β-galactosidase activity relative to DMSO) ([4]; 20 uM): 0.4293
CMV-LACZ in Myoblasts (β-galactosidase activity relative to DMSO) ([4]; 40 uM): 0.4578

Cc1cc([N+](=O)[O-])ccc1NC(=O)C(C)N1CCN(c2ccccn2)CC1 (stereo not drawn) [MLS000764729-01]
CMV-LACZ in Myotubes, signal relative to DMSO ([1]; 0.5 uM): 1.0358
CMV-LACZ in Myotubes, signal relative to DMSO ([1]; 1 uM): 1.1432
CMV-LACZ in Myotubes, signal relative to DMSO ([1]; 5 uM): 1.0779
CMV-LACZ in Myotubes, signal relative to DMSO ([1]; 10 uM): 0.9634
CMV-LACZ in Myotubes, signal relative to DMSO ([1]; 20 uM): 0.9656
CMV-LACZ in Myotubes, signal relative to DMSO ([1]; 40 uM): 1.1900
Burkin Assay in Myotubes, α7 integrin LacZ reporter signal relative to DMSO ([2]; 0.5 uM): 1.055
Burkin Assay in Myotubes, α7 integrin LacZ reporter signal relative to DMSO ([2]; 1 uM): 1.084
Burkin Assay in Myotubes, α7 integrin LacZ reporter signal relative to DMSO ([2]; 5 uM): 1.008
Burkin Assay in Myotubes, α7 integrin LacZ reporter signal relative to DMSO ([2]; 10 uM): 0.972
Burkin Assay in Myotubes, α7 integrin LacZ reporter signal relative to DMSO ([2]; 20 uM): 0.681
Burkin Assay in Myotubes, α7 integrin LacZ reporter signal relative to DMSO ([2]; 40 uM): 0.6075
Burkin Assay in Myoblasts, signal relative to DMSO ([3]; 0.5 uM): 1.088
Burkin Assay in Myoblasts, signal relative to DMSO ([3]; 1 uM): 1.0582
Burkin Assay in Myoblasts, signal relative to DMSO ([3]; 5 uM): 0.9816
Burkin Assay in Myoblasts, signal relative to DMSO ([3]; 10 uM): 0.9694
Burkin Assay in Myoblasts, signal relative to DMSO ([3]; 20 uM): 0.9581
Burkin Assay in Myoblasts, signal relative to DMSO ([3]; 40 uM): 0.726
CMV-LACZ in Myoblasts (β-galactosidase activity relative to DMSO) ([4]; 0.5 uM): 0.9865
CMV-LACZ in Myoblasts (β-galactosidase activity relative to DMSO) ([4]; 1 uM): 0.9520
CMV-LACZ in Myoblasts (β-galactosidase activity relative to DMSO) ([4]; 5 uM): 1.0259
CMV-LACZ in Myoblasts (β-galactosidase activity relative to DMSO) ([4]; 10 uM): 0.8880
CMV-LACZ in Myoblasts (β-galactosidase activity relative to DMSO) ([4]; 20 uM): 1.1200
CMV-LACZ in Myoblasts (β-galactosidase activity relative to DMSO) ([4]; 40 uM): 0.7504

COc1ccc(OC)c(NC(=O)CN2CCC(NC(=O)c3ccccc3C)CC2)c1 [MLS001212882-01]
CMV-LACZ in Myotubes, signal relative to DMSO ([1]; 0.5 uM): 1.0238
CMV-LACZ in Myotubes, signal relative to DMSO ([1]; 1 uM): 0.8705
CMV-LACZ in Myotubes, signal relative to DMSO ([1]; 5 uM): 1.0963
CMV-LACZ in Myotubes, signal relative to DMSO ([1]; 10 uM): 1.1133
CMV-LACZ in Myotubes, signal relative to DMSO ([1]; 20 uM): 1.1471
CMV-LACZ in Myotubes, signal relative to DMSO ([1]; 40 uM): 1.3024
Burkin Assay in Myotubes, α7 integrin LacZ reporter signal relative to DMSO ([2]; 0.5 uM): 0.9814
Burkin Assay in Myotubes, α7 integrin LacZ reporter signal relative to DMSO ([2]; 1 uM): 1.023
Burkin Assay in Myotubes, α7 integrin LacZ reporter signal relative to DMSO ([2]; 5 uM): 0.9072
Burkin Assay in Myotubes, α7 integrin LacZ reporter signal relative to DMSO ([2]; 10 uM): 0.8877
Burkin Assay in Myotubes, α7 integrin LacZ reporter signal relative to DMSO ([2]; 20 uM): 0.8421
Burkin Assay in Myotubes, α7 integrin LacZ reporter signal relative to DMSO ([2]; 40 uM): 0.9107
Burkin Assay in Myoblasts, signal relative to DMSO ([3]; 0.5 uM): 1.0132
Burkin Assay in Myoblasts, signal relative to DMSO ([3]; 1 uM): 1.07
Burkin Assay in Myoblasts, signal relative to DMSO ([3]; 5 uM): 1.049
Burkin Assay in Myoblasts, signal relative to DMSO ([3]; 10 uM): 0.9069
Burkin Assay in Myoblasts, signal relative to DMSO ([3]; 20 uM): 1.068
Burkin Assay in Myoblasts, signal relative to DMSO ([3]; 40 uM): 1.048
CMV-LACZ in Myoblasts (β-galactosidase activity relative to DMSO) ([4]; 0.5 uM): 1.1409
CMV-LACZ in Myoblasts (β-galactosidase activity relative to DMSO) ([4]; 1 uM): 1.1291
CMV-LACZ in Myoblasts (β-galactosidase activity relative to DMSO) ([4]; 5 uM): 0.9792
CMV-LACZ in Myoblasts (β-galactosidase activity relative to DMSO) ([4]; 10 uM): 1.0086
CMV-LACZ in Myoblasts (β-galactosidase activity relative to DMSO) ([4]; 20 uM): 1.3230
CMV-LACZ in Myoblasts (β-galactosidase activity relative to DMSO) ([4]; 40 uM): 1.0326

Cc1ccsc1-c1n[nH]c(=S)n1C1CCCCC1 [MLS000698617-01]
CMV-LACZ in Myotubes, signal relative to DMSO ([1]; 0.5 uM): 1.1221
CMV-LACZ in Myotubes, signal relative to DMSO ([1]; 1 uM): 1.0842
CMV-LACZ in Myotubes, signal relative to DMSO ([1]; 5 uM): 0.9014
CMV-LACZ in Myotubes, signal relative to DMSO ([1]; 10 uM): 0.9614
CMV-LACZ in Myotubes, signal relative to DMSO ([1]; 20 uM): 1.0011
CMV-LACZ in Myotubes, signal relative to DMSO ([1]; 40 uM): 1.0111
Burkin Assay in Myotubes, α7 integrin LacZ reporter signal relative to DMSO ([2]; 0.5 uM): 1.197
Burkin Assay in Myotubes, α7 integrin LacZ reporter signal relative to DMSO ([2]; 1 uM): 1.075
Burkin Assay in Myotubes, α7 integrin LacZ reporter signal relative to DMSO ([2]; 5 uM): 1.139
Burkin Assay in Myotubes, α7 integrin LacZ reporter signal relative to DMSO ([2]; 10 uM): 0.945
Burkin Assay in Myotubes, α7 integrin LacZ reporter signal relative to DMSO ([2]; 20 uM): 1.092
Burkin Assay in Myotubes, α7 integrin LacZ reporter signal relative to DMSO ([2]; 40 uM): 0.7963
Burkin Assay in Myoblasts, signal relative to DMSO ([3]; 0.5 uM): 1.008
Burkin Assay in Myoblasts, signal relative to DMSO ([3]; 1 uM): 1.003
Burkin Assay in Myoblasts, signal relative to DMSO ([3]; 5 uM): 1.06
Burkin Assay in Myoblasts, signal relative to DMSO ([3]; 10 uM): 0.9317
Burkin Assay in Myoblasts, signal relative to DMSO ([3]; 20 uM): 0.8462
Burkin Assay in Myoblasts, signal relative to DMSO ([3]; 40 uM): 0.8966
CMV-LACZ in Myoblasts (β-galactosidase activity relative to DMSO) ([4]; 0.5 uM): 1.3409
CMV-LACZ in Myoblasts (β-galactosidase activity relative to DMSO) ([4]; 1 uM): 0.9852
CMV-LACZ in Myoblasts (β-galactosidase activity relative to DMSO) ([4]; 5 uM): 1.1399
CMV-LACZ in Myoblasts (β-galactosidase activity relative to DMSO) ([4]; 10 uM): 1.0603
CMV-LACZ in Myoblasts (β-galactosidase activity relative to DMSO) ([4]; 20 uM): 1.1670
CMV-LACZ in Myoblasts (β-galactosidase activity relative to DMSO) ([4]; 40 uM): 1.0356
